Among the test systems are DMS 114 small cell lung; SNB-78 CNS; LXFL 529 NSCLC; DMS 273 small cell lung; RXF-631 renal; XF 498 CNS; M19-MEL melanoma; HOP-18 NSCLC.
Experiment in all cases: NCI-60 cell line screen, 48 h

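Results reflect a 48-hour exposure of cells in 96-well plates to compound at five concentrations. TGI marks complete inhibition of growth.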

In the case of `CCCCc1c2c(nc3c1CCc1cc4cc5c(nc4nc1-3)-c1nc3c(c(CCCC)c1CC5)CCC/C3=C\c1ccccc1)/C(=C/c1ccccc1)CCC2`, the TGI with DMS 114 small cell lung, in the assay with SNB-78 CNS, in the assay with LXFL 529 NSCLC and with DMS 273 small cell lung was more than 100 µM in each case.

In the case of `COC1=CC(=O)c2c(O)c3c(c(O)c2C1=O)C[C@](C)(O)C[C@@H]3O`, the TGI in the assay on DMS 114 small cell lung amounted to 3.7 µM; in the assay on SNB-78 CNS it was 16.3 µM; in the assay on RXF-631 renal, 11.2 µM; in the assay on LXFL 529 NSCLC it was 14.9 µM; in the assay on XF 498 CNS, 9.5 µM; in the assay on DMS 273 small cell lung, 8.37 µM. This compound also yielded a TGI with M19-MEL melanoma of 0.73 µM.

In the case of `Cc1occ2c1C(=O)CC1C2[C@@H](O)CC2C(C)(C)CCC[C@]12C` (stereo partly drawn), the TGI in the assay with DMS 114 small cell lung, in the assay with SNB-78 CNS, in the assay on HOP-18 NSCLC, with LXFL 529 NSCLC, in the assay on XF 498 CNS and with M19-MEL melanoma was more than 100 µM throughout.

Take `CC(=O)Nc1ccc(C(=O)N2N=C(C)/C(=C/c3cccc([N+](=O)[O-])c3)C2=O)cc1`: the TGI in the assay with DMS 114 small cell lung, in the assay on SNB-78 CNS, in the assay on HOP-18 NSCLC, in the assay with DMS 273 small cell lung and in the assay with M19-MEL melanoma was more than 100 µM throughout.

Regarding `O=C(COc1ccc(Cl)cc1)N1CCN(C(=O)COc2ccc(Cl)cc2)c2ccccc21`, the TGI in the assay on DMS 114 small cell lung, in the assay on SNB-78 CNS, in the assay on HOP-18 NSCLC, in the assay on LXFL 529 NSCLC, in the assay with XF 498 CNS and in the assay with DMS 273 small cell lung was more than 100 µM in each case. This compound showed a TGI in the assay with M19-MEL melanoma of more than 100 µM.

For the compound `Nc1ccc(C(=O)NN2C(=O)C(Cl)C2c2cccc(O)c2)cc1` (stereo not drawn), the TGI in the assay with DMS 114 small cell lung came out at 19.9 µM; in the assay on SNB-78 CNS, 40.2 µM; in the assay on LXFL 529 NSCLC, 24.3 µM; in the assay on DMS 273 small cell lung, 23.3 µM; with M19-MEL melanoma it was 38.3 µM.

On to `C#CCSc1nc(N)c2ncn(C3OC(COP(=O)(O)O)C(O)C3O)c2n1` (stereo not drawn), for which the TGI in the assay on SNB-78 CNS, in the assay with HOP-18 NSCLC, in the assay on XF 498 CNS, with DMS 273 small cell lung and in the assay on M19-MEL melanoma was more than 239 µM in each case.

For the compound `C=CCC1(CC)C(=O)NC(=O)NC1=O`, the TGI in the assay on SNB-78 CNS, in the assay on LXFL 529 NSCLC, in the assay on DMS 273 small cell lung and in the assay on M19-MEL melanoma was more than 100 µM in each case.

As to `CC1=NN(C(=O)c2ccc(Cl)cc2)C(=O)/C1=C/c1ccc(Cl)cc1`, the TGI with DMS 114 small cell lung, with SNB-78 CNS, with LXFL 529 NSCLC, in the assay with XF 498 CNS and in the assay on M19-MEL melanoma was more than 100 µM throughout.

As to `C/C(=C\Cc1cc(O)ccc1O)CCc1c(C)c(O)c(O)c(C=O)c1C`, the TGI with DMS 114 small cell lung turned out to be 34 µM; with HOP-18 NSCLC, 59.9 µM; in the assay with LXFL 529 NSCLC, 32.4 µM; in the assay with XF 498 CNS, 48.8 µM; with DMS 273 small cell lung, 74.6 µM; with M19-MEL melanoma, 38.8 µM.

For the compound `O=[N+]([O-])c1ccc2c(Nc3ccccc3-c3ccccc3Nc3c4ccccc4nc4cc([N+](=O)[O-])ccc34)c3ccccc3nc2c1`, the TGI in the assay on DMS 114 small cell lung was 27.3 µM; with SNB-78 CNS it was more than 100 µM; with HOP-18 NSCLC, more than 100 µM; with RXF-631 renal, more than 82.9 µM; in the assay with LXFL 529 NSCLC it was more than 35.1 µM; in the assay with XF 498 CNS, 4.98 µM. Besides, the TGI in the assay with DMS 273 small cell lung was more than 82.9 µM; in the assay on M19-MEL melanoma, 19.8 µM.

For the compound `CN1Cc2c(nc(-c3ccc(Br)cc3)c[n+]2[O-])N(C)C1`, the TGI in the assay with DMS 114 small cell lung, with SNB-78 CNS, in the assay with HOP-18 NSCLC, in the assay on LXFL 529 NSCLC, in the assay on XF 498 CNS and in the assay on DMS 273 small cell lung was more than 100 µM each time.

For `COC1(C)C(=O)N2C1N(C(=O)OCc1ccccc1)CC2(C)C` (stereo not drawn), the TGI in the assay on DMS 114 small cell lung, with LXFL 529 NSCLC, in the assay on XF 498 CNS, in the assay with DMS 273 small cell lung and with M19-MEL melanoma was more than 100 µM each time.

The values are drawn from PubChem BioAssay (NCI).
